Among the data in patent US20260022142A1, “MACROCYCLIC IMMUNOMODULATORS” (Bristol-Myers Squibb Company, priority 2022, published 2026) are IC50 values, retold here.

Bridge positions count the residues as written; N and C are the ends. Square brackets hold non-standard residues; d marks the D form. Peptide text beside a SMILES is read from it. * marks the point of attachment. Phe(4-COOH) = N[C@@H](Cc1ccc(C(=O)O)cc1)C(=O)O; Bip = N[C@@H](Cc1ccc(-c2ccccc2)cc1)C(=O)O; Phe(3-Me) = Cc1cccc(C[C@H](N)C(=O)O)c1; Cha = N[C@@H](CC1CCCCC1)C(=O)O; Carboxymethyl = O=C(O)C*; Orn = NCCC[C@H](N)C(=O)O; Aun = NCCCCCCCCCCC(=O)O; Dab = NCC[C@H](N)C(=O)O; Dap = NC[C@H](N)C(=O)O; AEEA = NCCOCCOCC(=O)O

The target of the experiment is T1, PD-1/PD-L1 interaction (PE-labeled human PD-L1-Ig binding to Jurkat cell line over-expressing human PD-1) (Homo sapiens, UniProt Q15116).
T1 construct: expressed in transfected cells; host or cells: Jurkat
T1 sequence (Q15116 25-288): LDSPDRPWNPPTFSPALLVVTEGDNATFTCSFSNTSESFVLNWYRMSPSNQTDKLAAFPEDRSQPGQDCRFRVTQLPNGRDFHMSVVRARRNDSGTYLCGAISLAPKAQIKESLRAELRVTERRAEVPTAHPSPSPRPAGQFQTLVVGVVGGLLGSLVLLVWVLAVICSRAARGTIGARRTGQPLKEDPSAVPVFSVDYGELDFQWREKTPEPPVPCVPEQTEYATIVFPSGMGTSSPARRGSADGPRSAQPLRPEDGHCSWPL
Nature of the experiment: Jurkat-PD-1 Cell Binding High-Content Screening Assay (CBA). The settings on record: Jurkat cell line over-expressing human PD-1; PE-labeled PD-L1-Ig 20 nM final; read-out: Jurkat hPD1-PDL1 IC50. In kind it is cell-based. The essentials: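 Jurkat-hPD-1 cells, DMEM/10% FCS; cpd 2 h 37° C; PE-PD-L1-Ig 20 nM final, 1 h; 4% PFA fix + Hoechst 33342, 3× dPBS wash; high-content imaging read-out.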
As to `CC(C)C[C@H]1NC(=O)[C@H](CCCN)NC(=O)[C@H](C(C)C)NC(=O)[C@H](Cc2ccc(-c3ccccc3)cc2)NC(=O)[C@H](C(C)C)NC(=O)[C@H](Cc2c[nH]c3ccccc23)NC(=O)[C@H](CC(=O)O)NC(=O)[C@H](Cc2ccc(C(=O)O)cc2)NC(=O)[C@H](Cc2ccc(OCC(=O)O)cc2)NC(=O)CSC[C@@H](C(=O)NCCOCCOCC(=O)N[C@@H](CCN)C(=O)NCCCCCCCCCCC(=O)O)NC(=O)[C@H](CCCCN)NC(=O)[C@H](C(C)C)NC(=O)[C@H](CC2CCCCC2)NC(=O)[C@H](CCN)NC1=O` [Compound 2539] ({CH2CO}-Y(Carboxymethyl)[Phe(4-COOH)]DWV[Bip]V[Orn][dL][Dab][Cha]VKC[AEEA][Dab][Aun]-OH; thioether N-14), the IC50 (in general, the concentration at which inhibition is half-maximal) stood at 5.3 nM.
On to `CC(C)C[C@H]1NC(=O)[C@H](CCCN)NC(=O)[C@H](C(C)C)NC(=O)[C@H](Cc2ccc(-c3ccccc3)cc2)NC(=O)[C@H](C(C)C)NC(=O)[C@H](Cc2c[nH]c3ccccc23)NC(=O)[C@H](CC(=O)O)NC(=O)[C@H](Cc2ccc(OCC(=O)O)cc2)NC(=O)[C@H](Cc2ccc(OCC(=O)O)cc2)NC(=O)CSC[C@@H](C(=O)NCCOCCOCC(=O)N[C@@H](CCN)C(=O)NCCCCCCCCCCC(=O)O)NC(=O)[C@H](CCCNC(=N)N)NC(=O)[C@H](C(C)C)NC(=O)[C@H](CC2CCCCC2)NC(=O)[C@H](CCN)NC1=O` [Compound 2540] ({CH2CO}-Y(Carboxymethyl)Y(Carboxymethyl)DWV[Bip]V[Orn][dL][Dab][Cha]VRC[AEEA][Dab][Aun]-OH; thioether N-14), for which the IC50 was 7 nM.
The same measure for `CC(C)C[C@H]1NC(=O)[C@H](CCCN)NC(=O)[C@H](C(C)C)NC(=O)[C@H](Cc2ccc(-c3ccccc3)cc2)NC(=O)[C@H](C(C)C)NC(=O)[C@H](Cc2c[nH]c3ccccc23)NC(=O)[C@H](CC(=O)O)NC(=O)[C@H](Cc2ccc(OCC(=O)O)cc2)NC(=O)[C@H](CN)NC(=O)CSC[C@@H](C(=O)NCCOCCOCC(=O)N[C@@H](CCN)C(=O)NCCCCCCCCCCC(=O)O)NC(=O)[C@H](CCCCN)NC(=O)[C@H](C(C)C)NC(=O)[C@H](CC2CCCCC2)NC(=O)[C@H](CCN)NC1=O` [Compound 2541] ({CH2CO}-[Dap]Y(Carboxymethyl)DWV[Bip]V[Orn][dL][Dab][Cha]VKC[AEEA][Dab][Aun]-OH; thioether N-14): 7.6 nM; for `Cc1cccc(C[C@@H]2NC(=O)[C@H](CC(=O)O)NC(=O)[C@H](Cc3ccc(OCC(=O)O)cc3)NC(=O)[C@H](CN)NC(=O)CSC[C@@H](C(=O)NCCOCCOCC(=O)N[C@@H](CCN)C(=O)NCCCCCCCCCCC(=O)O)NC(=O)[C@H](CN)NC(=O)[C@H](C(C)C)NC(=O)[C@H](CC3CCCCC3)NC(=O)[C@H](CCN)NC(=O)[C@@H](CC(C)C)NC(=O)[C@H](CCCN)NC(=O)[C@H](C(C)C)NC(=O)[C@H](Cc3ccc(-c4ccccc4)cc3)NC(=O)[C@H](C(C)C)NC2=O)c1` [Compound 2542] ({CH2CO}-[Dap]Y(Carboxymethyl)D[Phe(3-Me)]V[Bip]V[Orn][dL][Dab][Cha]V[Dap]C[AEEA][Dab][Aun]-OH; thioether N-14): 4.9 nM.
Turning to `Cc1cccc(C[C@@H]2NC(=O)[C@H](CC(=O)O)NC(=O)[C@H](Cc3ccc(OCC(=O)O)cc3)NC(=O)[C@H](CN)NC(=O)CSC[C@@H](C(=O)NCCOCCOCC(=O)N[C@@H](CCN)C(=O)NCCCCCCCCCCC(=O)O)NC(=O)[C@H](CCCN)NC(=O)[C@H](C(C)C)NC(=O)[C@H](CC3CCCCC3)NC(=O)[C@H](CCN)NC(=O)[C@@H](CC(C)C)NC(=O)[C@H](CCCN)NC(=O)[C@H](C(C)C)NC(=O)[C@H](Cc3ccc(-c4ccccc4)cc3)NC(=O)[C@H](C(C)C)NC2=O)c1` [Compound 2543] ({CH2CO}-[Dap]Y(Carboxymethyl)D[Phe(3-Me)]V[Bip]V[Orn][dL][Dab][Cha]V[Orn]C[AEEA][Dab][Aun]-OH; thioether N-14), the IC50 was determined as 9.5 nM.
For `Cc1cccc(C[C@@H]2NC(=O)[C@H](CC(=O)O)NC(=O)[C@H](Cc3ccc(OCC(=O)O)cc3)NC(=O)[C@H](CN)NC(=O)CSC[C@@H](C(=O)NCCOCCOCC(=O)N[C@@H](CCN)C(=O)NCCCCCCCCCCC(=O)O)NC(=O)[C@H](CCCNC(=N)N)NC(=O)[C@H](C(C)C)NC(=O)[C@H](CC3CCCCC3)NC(=O)[C@H](CCN)NC(=O)[C@@H](CC(C)C)NC(=O)[C@H](CCCN)NC(=O)[C@H](C(C)C)NC(=O)[C@H](Cc3ccc(-c4ccccc4)cc3)NC(=O)[C@H](C(C)C)NC2=O)c1` [Compound 2544] ({CH2CO}-[Dap]Y(Carboxymethyl)D[Phe(3-Me)]V[Bip]V[Orn][dL][Dab][Cha]VRC[AEEA][Dab][Aun]-OH; thioether N-14) the value was 10.7 nM; for `CC(C)C[C@H]1NC(=O)[C@H](CCCN)NC(=O)[C@H](C(C)C)NC(=O)[C@H](Cc2ccc(-c3ccccc3)cc2)NC(=O)[C@H](C(C)C)NC(=O)[C@H](Cc2c[nH]c3ccccc23)NC(=O)[C@H](CC(=O)O)NC(=O)[C@H](Cc2ccc(OCC(=O)O)cc2)NC(=O)[C@H](Cc2ccc(OCC(=O)O)cc2)NC(=O)CSC[C@@H](C(=O)NCCOCCOCC(=O)N[C@@H](CCN)C(=O)NCCCCCCCCCCC(=O)O)NC(=O)[C@H](CCCN)NC(=O)[C@H](C(C)C)NC(=O)[C@H](CC2CCCCC2)NC(=O)[C@H](CCN)NC1=O` [Compound 2545] ({CH2CO}-Y(Carboxymethyl)Y(Carboxymethyl)DWV[Bip]V[Orn][dL][Dab][Cha]V[Orn]C[AEEA][Dab][Aun]-OH; thioether N-14), 7.4 nM.
On to `CC(C)C[C@H]1NC(=O)[C@H](CCCN)NC(=O)[C@H](C(C)C)NC(=O)[C@H](Cc2ccc(-c3ccccc3)cc2)NC(=O)[C@H](C(C)C)NC(=O)[C@H](Cc2c[nH]c3ccccc23)NC(=O)[C@H](CC(=O)O)NC(=O)[C@H](Cc2ccc(OCC(=O)O)cc2)NC(=O)[C@H](Cc2ccc(OCC(=O)O)cc2)NC(=O)CSC[C@@H](C(=O)NCCOCCOCC(=O)N[C@@H](CCN)C(=O)NCCCCCCCCCCC(=O)O)NC(=O)[C@H](CN)NC(=O)[C@H](C(C)C)NC(=O)[C@H](CC2CCCCC2)NC(=O)[C@H](CCN)NC1=O` [Compound 2546] ({CH2CO}-Y(Carboxymethyl)Y(Carboxymethyl)DWV[Bip]V[Orn][dL][Dab][Cha]V[Dap]C[AEEA][Dab][Aun]-OH; thioether N-14), for which the IC50 amounted to 13.3 nM.
The same measure for `CC(C)C[C@H]1NC(=O)[C@H](CCCN)NC(=O)[C@H](C(C)C)NC(=O)[C@H](Cc2ccc(-c3ccccc3)cc2)NC(=O)[C@H](C(C)C)NC(=O)[C@H](Cc2c[nH]c3ccccc23)NC(=O)[C@H](CC(=O)O)NC(=O)[C@H](Cc2ccc(C(=O)O)cc2)NC(=O)[C@H](Cc2ccc(OCC(=O)O)cc2)NC(=O)CSC[C@@H](C(=O)N[C@@H](CCN)C(=O)NCCOCCOCC(=O)NCCCCCCCCCCC(=O)O)NC(=O)[C@H](CCCCN)NC(=O)[C@H](C(C)C)NC(=O)[C@H](CC2CCCCC2)NC(=O)[C@H](CCN)NC1=O` [Compound 2547] ({CH2CO}-Y(Carboxymethyl)[Phe(4-COOH)]DWV[Bip]V[Orn][dL][Dab][Cha]VKC[Dab][AEEA][Aun]-OH; thioether N-14): 31.9 nM.
